Results taken from PubChem BioAssay AID2060619 (Molecular Pharmacology Branch, DTP, NCI, 2025).
Several values for one entry are separate records, joined by “and”; a condition that tells them apart may be missing. Identical values can stand only once.

Test system: 323965-272-R-J2-PDC complex spheroid viability
Experiment: Anticancer human tumor 323965-272-R-J2-PDC patient-derived pancreatic carcinoma cell line growth inhibition [CLK]
Conditions: for viability, T/C: stronger effect = lower value
Summary of the method: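 Patient-derived tumor cells grown as complex spheroids with HUVEC endothelial cells and mesenchymal stem cells, treated with drug combinations. Concentrations descend in half-log steps from near clinical Cmax, or from 10 microM if Cmax unknown.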

[1] = curve of first compound, second compound 0.0316 µM
[2] = curve of first compound, second compound 0.1 µM
[3] = curve of first compound, second compound 0.316 µM
[4] = curve of first compound, second compound 1 µM
[5] = curve of first compound, second compound 3.16 µM
[6] = curve of first compound, second compound 10 µM
[7] = second compound 0.0316 µM, first compound 0.0316 µM
[8] = second compound 0.0316 µM, first compound 0.1 µM
[9] = second compound 0.0316 µM, first compound 0.316 µM
[10] = second compound 0.0316 µM, first compound 1 µM
[11] = second compound 0.1 µM, first compound 0.0316 µM
[12] = second compound 0.1 µM, first compound 0.1 µM
[13] = second compound 0.1 µM, first compound 0.316 µM
[14] = second compound 0.1 µM, first compound 1 µM
[15] = second compound 0.316 µM, first compound 0.0316 µM
[16] = second compound 0.316 µM, first compound 0.1 µM
[17] = second compound 0.316 µM, first compound 0.316 µM
[18] = second compound 0.316 µM, first compound 1 µM
[19] = second compound 1 µM, first compound 0.0316 µM
[20] = second compound 1 µM, first compound 0.1 µM
[21] = second compound 1 µM, first compound 0.316 µM
[22] = second compound 1 µM, first compound 1 µM
[23] = second compound 3.16 µM, first compound 0.0316 µM
[24] = second compound 3.16 µM, first compound 0.1 µM
[25] = second compound 3.16 µM, first compound 0.316 µM
[26] = second compound 3.16 µM, first compound 1 µM
[27] = second compound 10 µM, first compound 0.0316 µM
[28] = second compound 10 µM, first compound 0.1 µM
[29] = second compound 10 µM, first compound 0.316 µM
[30] = second compound 10 µM, first compound 1 µM
[31] = second compound 0.0316 µM, first compound 3.16 µM
[32] = second compound 0.0316 µM, first compound 10 µM
[33] = second compound 0.1 µM, first compound 3.16 µM
[34] = second compound 0.1 µM, first compound 10 µM
[35] = second compound 0.316 µM, first compound 3.16 µM
[36] = second compound 0.316 µM, first compound 10 µM
[37] = second compound 1 µM, first compound 3.16 µM
[38] = second compound 1 µM, first compound 10 µM
[39] = second compound 3.16 µM, first compound 3.16 µM
[40] = second compound 3.16 µM, first compound 10 µM
[41] = second compound 10 µM, first compound 3.16 µM
[42] = second compound 10 µM, first compound 10 µM
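Further: spheroids exposed to agents for seven days before readout.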
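Wherever viability, T/C is given: percent of DMSO vehicle control wells so 100% = untreated growth.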

Work on `CCc1c2c(nc3ccc(O)cc13)-c1cc3c(c(=O)n1C2)COC(=O)[C@]3(O)CC` + CN1CCN(c2cc(C(=O)Nc3cc4cc(-c5cnn(C)c5)ccc4cn3)ccn2)CC1 yielded an IC50 [1] of 7.63 nM, an IC50 [2] of under 3.16 nM and an IC50 [3] of under 3.16 nM. It also gave an IC50 [4] of under 3.16 nM, an IC50 [5] of under 3.16 nM and an IC50 [6] of under 3.16 nM. The viability, T/C (second compound 0.0316 µM, first compound 0.00316 µM) was 77.2%, the viability, T/C (second compound 0.0316 µM, first compound 0.01 µM) was 41.7% and the viability, T/C [7] was 28.6%. The viability, T/C [8] was 27.2%, the viability, T/C [9] was 25.7% and the viability, T/C [10] was 24.1%. The viability, T/C (second compound 0.1 µM, first compound 0.00316 µM) was 42.6%, the viability, T/C (second compound 0.1 µM, first compound 0.01 µM) was 33.3% and the viability, T/C [11] was 26%. For the same compound, the viability, T/C [12] was 24.7%, the viability, T/C [13] was 20.1% and the viability, T/C [14] was 19.7%. It also gave a viability, T/C (second compound 0.316 µM, first compound 0.00316 µM) of 22.2%, a viability, T/C (second compound 0.316 µM, first compound 0.01 µM) of 23.1% and a viability, T/C [15] of 18.6%. The viability, T/C [16] was 20.3%, the viability, T/C [17] was 19.1% and the viability, T/C [18] was 6.86%. It also gave a viability, T/C (second compound 1 µM, first compound 0.00316 µM) of 3.79%, a viability, T/C (second compound 1 µM, first compound 0.01 µM) of 3.36% and a viability, T/C [19] of 2.56%. The viability, T/C [20] was 2.23%, the viability, T/C [21] was 1.14% and the viability, T/C [22] was 0.61%. It also gave a viability, T/C (second compound 3.16 µM, first compound 0.00316 µM) of 4.21%, a viability, T/C (second compound 3.16 µM, first compound 0.01 µM) of 3.48% and a viability, T/C [23] of 3.05%. The viability, T/C [24] was 1.79%, the viability, T/C [25] was 1.1% and the viability, T/C [26] was 0.61%. The viability, T/C (second compound 10 µM, first compound 0.00316 µM) was 4.27%, the viability, T/C (second compound 10 µM, first compound 0.01 µM) was 6.63% and the viability, T/C [27] was 2.33%. It also gave a viability, T/C [28] of 1.69%, a viability, T/C [29] of 0.96% and a viability, T/C [30] of 0.59%.
In the case of `CC(=O)O[C@H]1C(=O)[C@@]2(C)[C@H]([C@H](OC(=O)c3ccccc3)[C@]3(O)C[C@H](OC(=O)[C@H](O)[C@@H](NC(=O)c4ccccc4)c4ccccc4)C(C)=C1C3(C)C)[C@]1(OC(C)=O)CO[C@@H]1C[C@@H]2O`, the viability, T/C (compound 0.0316 µM) is reported as 35.3% and 32%, the viability, T/C (compound 0.1 µM) is reported as 36.8% and 34.2% and the viability, T/C (compound 0.316 µM) is reported as 33.2% and 32.9%. The viability, T/C (compound 1 µM) was 34.6% and 33.4%, the viability, T/C (compound 3.16 µM) was 39.6% and 35.1% and the viability, T/C (compound 10 µM) was 35.9% and 36.3%. For the same compound, the IC50 (curve of compound) was under 31.6 nM.
For `CC(=O)O[C@H]1C(=O)[C@@]2(C)[C@H]([C@H](OC(=O)c3ccccc3)[C@]3(O)C[C@H](OC(=O)[C@H](O)[C@@H](NC(=O)c4ccccc4)c4ccccc4)C(C)=C1C3(C)C)[C@]1(OC(C)=O)CO[C@@H]1C[C@@H]2O` + CNC(=O)c1ccc(Nc2nc(OC3CCCC3)c3c(-c4ccc5nc(C)oc5c4)c[nH]c3n2)c(OC)c1, the IC50 [1] was under 31.6 nM, the IC50 [2] was under 31.6 nM and the IC50 [3] was over 10000 nM. For the same compound, the IC50 [4] was over 10000 nM, the IC50 [5] was under 31.6 nM and the IC50 [6] was under 31.6 nM. It also gave a viability, T/C [7] of 32.8%, a viability, T/C [8] of 40.5% and a viability, T/C [9] of 34.4%. For the same compound, the viability, T/C [10] was 33.2%, the viability, T/C [31] was 33.1% and the viability, T/C [32] was 36.9%. It also gave a viability, T/C [11] of 45.3%, a viability, T/C [12] of 42.7% and a viability, T/C [13] of 41.9%. It also gave a viability, T/C [14] of 37.9%, a viability, T/C [33] of 38.5% and a viability, T/C [34] of 38.5%. It also gave a viability, T/C [15] of 66.5%, a viability, T/C [16] of 68.7% and a viability, T/C [17] of 62.7%. The viability, T/C [18] was 67.7%, the viability, T/C [35] was 68.5% and the viability, T/C [36] was 76.1%. For the same compound, the viability, T/C [19] was 55.4%, the viability, T/C [20] was 60.1% and the viability, T/C [21] was 67.5%. The viability, T/C [22] was 63.2%, the viability, T/C [37] was 75.8% and the viability, T/C [38] was 74.5%. For the same compound, the viability, T/C [23] was 48.6%, the viability, T/C [24] was 53.5% and the viability, T/C [25] was 49.8%. The viability, T/C [26] was 56.1%, the viability, T/C [39] was 65.3% and the viability, T/C [40] was 60.4%. For the same compound, the viability, T/C [27] was 44.6%, the viability, T/C [28] was 49% and the viability, T/C [29] was 49.2%. It also gave a viability, T/C [30] of 55.8%, a viability, T/C [41] of 68.7% and a viability, T/C [42] of 60.4%.
In the case of `CCN1CCN(Cc2ccc(Nc3ncc(F)c(-c4cc(F)c5nc(C)n(C(C)C)c5c4)n3)nc2)CC1`, the viability, T/C (compound 0.00316 µM) is reported as 91.3% and 105%, the viability, T/C (compound 0.01 µM) is reported as 95.6% and 95% and the viability, T/C (compound 0.0316 µM) is reported as 81.2% and 68.3%. For the same compound, the viability, T/C (compound 0.1 µM) was 67.5% and 69.9%, the viability, T/C (compound 0.316 µM) was 73.3% and 68.3% and the viability, T/C (compound 1 µM) was 72.3% and 68.7%. The IC50 (curve of compound) was over 1000 nM.
With `Nc1ccccc1NC(=O)c1ccc(CNC(=O)OCc2cccnc2)cc1` + CNC(=O)c1ccc(Nc2nc(OC3CCCC3)c3c(-c4ccc5nc(C)oc5c4)c[nH]c3n2)c(OC)c1 the IC50 [1] was 5450 nM, the IC50 [2] was 6500 nM and the IC50 [3] was 2410 nM. The IC50 [4] was 1110 nM, the IC50 [5] was under 31.6 nM and the IC50 [6] was under 31.6 nM. For the same compound, the viability, T/C [7] was 112%, the viability, T/C [8] was 113% and the viability, T/C [9] was 118%. For the same compound, the viability, T/C [10] was 93.5%, the viability, T/C [31] was 58.4% and the viability, T/C [32] was 41.4%. For the same compound, the viability, T/C [11] was 90.3%, the viability, T/C [12] was 89% and the viability, T/C [13] was 98.3%. The viability, T/C [14] was 92.2%, the viability, T/C [33] was 62.1% and the viability, T/C [34] was 42.8%. It also gave a viability, T/C [15] of 67.2%, a viability, T/C [16] of 69.2% and a viability, T/C [17] of 72.6%. It also gave a viability, T/C [18] of 75.3%, a viability, T/C [35] of 43.4% and a viability, T/C [36] of 28.8%. For the same compound, the viability, T/C [19] was 62.4%, the viability, T/C [20] was 57.5% and the viability, T/C [21] was 58.7%. The viability, T/C [22] was 51.7%, the viability, T/C [37] was 35.3% and the viability, T/C [38] was 26.2%. For the same compound, the viability, T/C [23] was 50.7%, the viability, T/C [24] was 47.7% and the viability, T/C [25] was 49.8%. For the same compound, the viability, T/C [26] was 44%, the viability, T/C [39] was 32.2% and the viability, T/C [40] was 25.5%. The viability, T/C [27] was 41%, the viability, T/C [28] was 47.3% and the viability, T/C [29] was 47.1%. It also gave a viability, T/C [30] of 37.5%, a viability, T/C [41] of 31.2% and a viability, T/C [42] of 25.7%.
